The test system of this test is CEM cells HIV-1 protection, formazan growth assay. Put plainly: NCI AIDS Antiviral Assay. Particulars: for IC50: measured here: growth of uninfected CEM cells. A digest of the protocol: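 Protection of CEM cells against HIV-1 measured as cell growth via soluble formazan read-out, with five concentrations tested on both infected and uninfected cells; failure to protect may reflect toxicity.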

Active and inactive are the calls of the source.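 The calls were made as follows: active = compounds giving half or more protection of infected cells from virus-caused growth loss, again on retest; inactive = the rest.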

In general, EC50 refers to the concentration giving half of the maximal effect. In general, IC50 refers to the concentration that gives 50% inhibition. With `CC(C)(C)OC(=O)CC(NC(=O)OC(C)(C)C)C(=O)NC(C(=O)O)C(O)c1ccccc1` (centres undefined), the EC50 is above 200 µM and the IC50 was 93.3 µM.
Consider `c1csc(-c2sc(-c3ccsc3)cc2Cc2ccsc2)c1`, for which the outcome was inactive.
Still for that read-out and setting: the value for `Cc1cccc(C)c1N1C(=O)C(=O)C(c2nc3ccccc3s2)/C(=N/NC(=O)NN)C1=O` (centres undefined) was “inactive”.
For the compound `O=C1/C(=C/c2ccc(Cl)cc2)Cc2ccccc21`, the EC50 is above 5.62 µM and the IC50 is above 5.62 µM.
For the compound `CCOC(=O)C(Cc1c[nH]c2ccc(N)cc12)(NC(C)=O)C(=O)OCC`, the EC50 is above 200 µM and the IC50 is above 200 µM.
For `C/C(=N\NC(=S)N(C)C)c1ncc[nH]1`, the EC50 is above 234 µM and the IC50 is 4.27 µM.
`c1ccc(CN2CCC3(N4CCOCC4)C(C2)N=NN3c2ccccc2)cc1` (centres undefined): the EC50 was above 200 µM and the IC50 turned out to be 110 µM.
Regarding `COC1CC(C)C(OC)c2cc(O)cc(c2O)NC(=O)/C(C)=C/C=C\C(C)C(OC(N)=O)/C(C)=C\C(C)C1OC` (centres undefined), the EC50 was above 170 µM and the IC50 was determined as 0.676 µM.
Taken in the same sequence, the figures for `Nc1c(Br)cc(/C=C2\C=Cc3ccccc32)cc1Br` were above 10 µM and above 10 µM.
As for `CN1C2CCC1C(C(=O)O)C(O)C2` (centres undefined), the EC50 is above 200 µM and the IC50 was above 200 µM.
For the compound `O=C(Cc1ccc(Cl)cc1)NC(NC(=O)Cc1ccc(Cl)cc1)C(Cl)(Cl)Cl`, the EC50 is above 200 µM and the IC50 is above 200 µM.
Regarding `c1csc(-c2cscc2-c2ccsc2)c1`, the EC50 is above 200 µM and the IC50 came out at 38.9 µM.
As to `O=[N+]([O-])c1ccc2[nH]nc(OCc3ccccn3)c2c1`, the EC50 is 115 µM and the IC50 is above 200 µM.
Taken in the same sequence, the figures for `CC(=O)OCC1OC(OCCCOP(=O)(OCCC#N)OCC2OC(n3cnc4c(N)ncnc43)C(OC(=O)c3ccccc3)C2OC(=O)c2ccccc2)C(OC(C)=O)C(OC(C)=O)C1OC(C)=O` (centres undefined) were above 100 µM and above 100 µM.
In the case of `CCOC(=O)C(CCCCn1cnc2ncnc(Cl)c21)(NC(C)=O)C(=O)OCC`, the result was inactive.
As for `NC(=O)N/N=C\CC(O)(C(F)(F)Cl)C(F)(F)Cl`, the EC50 is above 200 µM and the IC50 is above 200 µM.
For the compound `C[C@H](CCCN1CCN(C)CC1)[C@H]1CC[C@H]2[C@@H]3CC[C@@H]4C[C@H](O)CC[C@]4(C)[C@H]3CC[C@]12C`, the EC50 is above 50.1 µM and the IC50 came to 3.09 µM.
For `O=S(=O)(O)CO`, the EC50 was above 200 µM and the IC50 stood at 151 µM.
For `O=c1c2cccc3cccc(c4n1CCN=4)c32`, in that order: above 200 µM and 20.9 µM.
For `Cc1ccnc(NC(=O)NC2CCCCC2)c1`, in that order: above 200 µM and 145 µM.
Regarding `N#CC1=C(N)C(C#N)(C#N)C2(CCCC2)C2CCC=C12` (centres undefined), the result was inactive.
`N#Cc1nc(-c2ccccc2O)oc1N`: the EC50 is above 200 µM and the IC50 was above 100 µM.
`CC1(C)CNC[C@@](C)(OCCO)C(=O)[N-]C(C)(C)CNC[C@@](C)(OCCO)C(=O)[N-]1.[Ni+2]`: the EC50 was above 200 µM and the IC50 was above 200 µM.
With `CS/C(=N\c1nccs1)NC(=O)c1cccc(Cl)c1`, the EC50 was above 58.9 µM and the IC50 was above 58.9 µM.
Take `Cc1nc(-n2nc(-c3ccccc3)cc2-c2ccccc2)sc1C(=O)/C=C/c1ccc(/C=C/C(=O)c2sc(-n3nc(-c4ccccc4)cc3-c3ccccc3)nc2C)cc1`: the EC50 was above 22.9 µM and the IC50 was above 22.9 µM.
Take `C(=N\NC1=NCCCN1)/c1ccc2ccccc2c1`: the EC50 is above 200 µM and the IC50 was found to be 8.32 µM.
For `N#Cc1c(N)nc2c3c1NC(=O)C(C(N)=O)C3c1ccccc1O2` (centres undefined), the EC50 was above 200 µM and the IC50 was above 200 µM.
As for `O=c1c2ccccc2ncn1O`, the EC50 is above 200 µM and the IC50 was above 200 µM.
Consider `Nc1nc2c(-c3ccc([N+](=O)[O-])cc3)nnn2c2ccccc12`, for which the EC50 was above 4.68 µM and the IC50 is above 4.68 µM.
As for `C=CC[C@]12C[C@@H](C(=O)OC)N(C(=O)OC)[C@H]1N(S(=O)(=O)c1ccccc1)c1ccccc12`, the EC50 is above 200 µM and the IC50 is 74.1 µM.
With `OCc1ccccc1C1CSCSC1`, the EC50 was above 219 µM and the IC50 is above 219 µM.
As to `COC(=O)[C@@H](O)[C@]1(C(=O)OC)C2O[C@@H](OC)[C@@H]1CCCCCC[C@H]2O`, the EC50 was above 200 µM and the IC50 is above 200 µM.
In the case of `COc1ccc(N2C(=O)C3c4[nH]c5ccccc5c4C4CCC(C(C)(C)C)CC4C3C2=O)cc1OC` (centres undefined), the EC50 was above 2.14 µM and the IC50 was above 2.14 µM.
In the case of `CCOC(=O)[C@H]1Nc2ccccc2C2c3ccccc3CC21` (some centres undefined), the EC50 is above 64.6 µM and the IC50 was above 64.6 µM.
Turning to `c1ccc(N=c2sc3ccccc3nc2Nc2ccccc2)cc1`, the EC50 is above 200 µM and the IC50 came to 123 µM.
Taken in the same sequence, the figures for `Cc1nnc2n1N=C(c1ccc(O)c(O)c1O)CS2` were above 200 µM and 20.4 µM.
For the compound `Cc1cc2occ(C)c(=O)c2c2c1OC(C)(C)S2`, the EC50 is above 100 µM and the IC50 came to 51.3 µM.
For `BrCCC[P+](c1ccccc1)(c1ccccc1)c1ccccc1`, the EC50 is above 20 µM and the IC50 came out at 0.912 µM.
Taken in the same sequence, the figures for `CCn1ccnc1.CCn1ccnc1.O=C([O-])CC(O)C(=O)[O-].[Pt+2]` (centres undefined) were above 200 µM and above 200 µM.
Taken in the same sequence, the figures for `CC(C)c1ccc(C2NC(=S)NC3=C2c2ccccc2C3=O)cc1` (centres undefined) were above 107 µM and 14.8 µM.
`COC(=O)C(Cc1ccccc1)NS(=O)(=O)c1ccc(-c2c3nc(c(-c4ccc(S(=O)(=O)NC(Cc5ccccc5)C(=O)OC)cc4)c4ccc([nH]4)c(-c4ccc(S(=O)(=O)NC(Cc5ccccc5)C(=O)OC)cc4)c4nc(c(-c5ccc(S(=O)(=O)NC(Cc6ccccc6)C(=O)OC)cc5)c5ccc2[nH]5)C=C4)C=C3)cc1` (centres undefined): the EC50 is above 126 µM and the IC50 was above 126 µM.
Take `Cc1cc(C)nc(NS(=O)(=O)c2ccc(Nc3c4ccc(Cl)cc4nc4c(C(=O)Nc5ccc(S(N)(=O)=O)cc5)cccc34)cc2)n1`: the EC50 was above 52.5 µM and the IC50 turned out to be 42.7 µM.
`CCN(CC)P1CCP(c2ccccc2)CC1` (centres undefined): the EC50 was above 37.2 µM and the IC50 is above 37.2 µM.
Regarding `CC(=O)OC1C2C(=C(C)C(=O)O[C@@H]2c2ccoc2)[C@@]2(C)CC3CC(C)(C(=O)O3)C12` (some centres undefined), the EC50 was above 200 µM and the IC50 was above 200 µM.
For `COc1ccc(N2CCCSC2=S)cc1`, the EC50 is above 200 µM and the IC50 is above 200 µM.
As to `COc1ccc(P2(=S)OCCOP(=S)(c3ccc(OC)cc3)S2)cc1` (centres undefined), the EC50 was above 117 µM and the IC50 stood at 3.98 µM.
On to `CC(C)=CCC/C(C)=C/CN1Cc2cccc3[nH]c(=S)n(c23)CC1C` (centres undefined), for which the EC50 is above 18.2 µM.
Regarding `Cc1ccc2c(c1)C1(C)OC(CC(N)C1O)O2` (centres undefined), the outcome was inactive.
Consider `O=S1(=O)CCc2ccccc2C(Br)C1` (centres undefined), for which the EC50 is above 200 µM and the IC50 is above 200 µM.
Consider `Cc1ccc(C(=O)O/N=C2/CCC/C2=C\c2ccccc2)cc1`, for which the outcome was inactive.
Regarding `CCCCCCCCCCCCCCCC(=O)Nc1ccn(C2CSC(COP(=O)(O)OC3CC(n4ccc(NC(=O)CCCCCCCCCCCCCCC)nc4=O)OC3CO)O2)c(=O)n1` (centres undefined), the EC50 is 9.55 µM and the IC50 is above 200 µM.
For `CN/N=C(/Cc1occc(=O)c1O)C(=O)Nc1ccccc1C`, in that order: above 794 µM and 724 µM.
With `CCN(CC)C(=O)Cn1c2c(c3ccccc31)CCCC2`, the EC50 was above 200 µM and the IC50 was determined as 138 µM.
As for `CC(CC[C@@H](C)C1CCC2[C@@H]3CC(O)C4CC(O)[C@@H](O)C[C@]4(C)C3CC[C@@]21C)C(C)(C)C` (some centres undefined), the result was inactive.
With `Nc1ccn(C2CC(O)C(COP(O)(=S)OC3CC(n4ccc(N)nc4=O)OC3CO)O2)c(=O)n1` (centres undefined), the EC50 is above 200 µM and the IC50 is above 200 µM.
Consider `CC(=O)Nc1ccc(NCC(=O)Nn2cnc3ccc(S(=O)(=O)Nc4ccc(NC(C)=O)cc4)cc3c2=O)cc1`, for which the EC50 is above 200 µM and the IC50 stood at 191 µM.
With `CCOC(=O)C1Cc2ccc(OC)cc2C2=CC(=O)CCC21` (centres undefined), the EC50 was above 166 µM and the IC50 was above 166 µM.
Turning to `O=C(OCCOC(=O)c1ccc2c(c1)C1(SCCS1)c1ccccc1-2)c1ccc2c(c1)C1(SCCS1)c1ccccc1-2`, the EC50 was above 30.2 µM and the IC50 was above 30.2 µM.
Turning to `COc1ccc(-n2c(N)c(C#N)c3c(c2=S)CCC3)cc1`, the EC50 is above 316 µM and the IC50 was above 316 µM.
For `CC(C)=CCC1=C(O)C(CC=C(C)C)(CC=C(C)C)C(=O)C(C(=O)C(C)C)=C1O`, the EC50 was above 33.9 µM and the IC50 was found to be 7.08 µM.
Take `C#C[C@@]1(O)CCCC2=CC(=O)C[C@]21C`: the outcome was inactive.
`Cc1c(N=Nc2ccc(Cl)cc2)c(-c2ccccc2)n(C2OC(CO)C(O)C(O)C2O)c(=S)c1C#N` (centres undefined): the EC50 is above 200 µM and the IC50 came out at 37.2 µM.
Taken in the same sequence, the figures for `NCCCCC(NC(=O)C(N)Cc1ccc(O)cn1)C(=O)O` (centres undefined) were above 200 µM and above 200 µM.
For `Cc1cc(O)c2c(=O)c3ccccc3[nH]c2c1`, in that order: above 200 µM and 40.7 µM.
Taken in the same sequence, the figures for `CCCC(=O)OCC1=CCC2c3c(c4ccccc4n3C)CC1N2Cc1ccccc1` (centres undefined) were above 21.4 µM and 3.8 µM.
For the compound `O=C1[C@@H](c2ccc(Cl)cc2)[C@H]2CC=C[C@H]2N1O`, the EC50 is above 355 µM and the IC50 was 61.7 µM.
Consider `C=CC1(CC[C@]2(c3ccc(OC)c(OC)c3)C=[N+]([O-])O[C@H](O[C@@H]3CCCC[C@H]3C(C)(C)c3ccccc3)C2)OCC(C)(C)CO1`, for which the EC50 is above 200 µM and the IC50 turned out to be 11.2 µM.
In the case of `NC(N)=NS(=O)(=O)c1ccc(NC(=O)c2cccc3c(NNc4ccc(C(=O)O)cc4)c4ccccc4nc23)cc1`, the EC50 is above 200 µM and the IC50 amounted to 33.9 µM.
Regarding `Cc1ccc(S(=O)(=O)Oc2nc3nc4ccccc4nc3nc2OS(=O)(=O)c2ccc(C)cc2)cc1`, the EC50 is above 200 µM and the IC50 is 102 µM.

The values are drawn from PubChem BioAssay AID179 (DTP/NCI, 2004).
